Here are results for 22 compounds from patent US7560466B2, “Methods of treating or preventing autoimmune diseases with 2,4-pyrimidinediamine compounds” (Rigel Pharmaceuticals, Inc., priority 2003, dated 2009).

Read-outs that look alike come from different tables or passages of the source.

The subject of this test is cultured human mast cells (CHMC), IgE-induced degranulation. Briefly: CHMC low cell density IgE activation: tryptase assay. The format is cell-based. Conditions: low cell density CHMC. Put shortly: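 Cord-blood CD34+-derived mucosal mast cells (SCF/IL-6 medium), 1000–1500 cells/well, preincubated with compound 1 h at 37°C, then anti-IgE stimulated 30 min at 37°C.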
Setting [1] is: 8-point, read-out: LD Tryptase, CHMC, IgE, 8pt.
[2] abbreviates: 3-point, read-out: LD Tryptase, CHMC, IgE, 3pt.

In the case of `COc1c(C)cc(Nc2ncc(F)c(Nc3ccc4c(n3)NC(=O)CO4)n2)cc1C` [Compound 1059, N2-(3,5-Dimethyl-4-methoxyphenyl)-5-fluoro-N4-(3-oxo-2H,4H-5-pyrid[1,4]oxazin-6-yl)-2,4-pyrimidinediamine], the IC50 under setting [1] was below 10 µM.

In the case of `COc1cccc(Nc2ncc(F)c(Nc3ccc4c(n3)NC(=O)CO4)n2)c1C` [Compound 1061, 5-Fluoro-N2-(3-methoxy-2-methylphenyl)-N4-(3-oxo-2H,4H-5-pyrid[1,4]oxazin-6-yl)-2,4-pyrimidinediamine], under setting [1], the IC50 is below 10 µM.

With `Cc1c(O)cccc1Nc1ncc(F)c(Nc2ccc3c(n2)NC(=O)CO3)n1` [Compound 1063, 5-Fluoro-N2-(3-hydroxy-2-methylphenyl)-N4-(3-oxo-2H,4H-5-pyrid[1,4]oxazin-6-yl)-2,4-pyrimidinediamine], under setting [1], the IC50 is below 10 µM.

`Cc1c(O)cccc1Nc1ncc(F)c(Nc2ccc3c(n2)NC(=O)C(C)(C)O3)n1` [Compound 1064, N4-(2,2-Dimethyl-3-oxo-4H-5-pyrid[1,4]oxazin-6-yl)-5-fluoro-N2-(3-hydroxy-2-methylphenyl)-2,4-pyrimidinediamine]: the IC50 under setting [1] is below 10 µM.

For the compound `COc1cccc(Nc2ncc(F)c(Nc3ccc4c(n3)NC(=O)C(C)(C)O4)n2)c1C` [Compound 1065, N4-(2,2-Dimethyl-3-oxo-4H-5-pyrid[1,4]oxazin-6-yl)-5-fluoro-N2-(3-methoxy-2-methylphenyl)-2,4-pyrimidinediamine], under setting [2], the IC50 was below 10 µM.

For `COC(=O)COc1cccc(Nc2ncc(F)c(Nc3ccc4c(c3)NC(=O)C(C)(C)O4)n2)c1C` [Compound 1066, N4-(2,2-Dimethyl-3-oxo-4H-benz[1,4]oxazin-6-yl)-5-fluoro-N2-[3-methoxycarbonylmethyleneoxy-2-methylphenyl]-2,4-pyrimidinediamine], the IC50 under setting [2] is below 10 µM.

In the case of `CNC(=O)COc1cccc(Nc2ncc(F)c(Nc3ccc4c(c3)NC(=O)C(C)(C)O4)n2)c1C` [Compound 1067, N4-(2,2-Dimethyl-3-oxo-4H-benz[1,4]oxazin-6-yl)-5-fluoro-N2-[2-methyl-3-(N-methylamino)carbonylmethyleneoxyphenyl]-2,4-pyrimidinediamine], under setting [1], the IC50 was below 10 µM.

On to `CNC(=O)COc1cccc(Nc2ncc(F)c(Nc3ccc4c(n3)NC(=O)CO4)n2)c1C` [Compound 1068, 5-Fluoro-N2-[2-methyl-3-(N-methylamino)carbonylmethyleneoxyphenyl]-N4-(3-oxo-2H,4H-5-pyrid[1,4]oxazin-6-yl)-2,4-pyrimidinediamine], for which the IC50 under setting [1] was below 10 µM.

For the compound `Cc1cc(Nc2ncc(F)c(Nc3ccc4c(n3)NC(=O)CO4)n2)cc(C)c1O` [Compound 1069, N2-(3,5-Dimethyl-4-hydroxyphenyl)-5-fluoro-N4-(3-oxo-2H,4H-5-pyrid[1,4]oxazin-6-yl)-2,4-pyrimidinediamine], the IC50 under setting [1] is below 10 µM.

Regarding `CCOC(=O)N1CCN(c2cccc(Nc3ncc(F)c(Nc4ccc5c(n4)NC(=O)CO5)n3)c2)CC1` [Compound 1070, N2-[3-(4-Ethoxycarbonylpiperazino)phenyl]-5-fluoro-N4-(3-oxo-2H,4H-5-pyrid[1,4]oxazin-6-yl)-2,4-pyrimidinediamine], under setting [1], the IC50 was below 10 µM.

Take `CC(=O)N1CCN(c2cccc(Nc3ncc(F)c(Nc4ccc5c(n4)NC(=O)CO5)n3)c2)CC1` [Compound 1071, N2-[3-(4-Acetylpiperazino)phenyl]-5-fluoro-N4-(3-oxo-2H,4H-5-pyrid[1,4]oxazin-6-yl)-2,4-pyrimidinediamine]: the IC50 under setting [1] was below 10 µM.

On to `CCOC(=O)N1CCN(c2ccc(Nc3ncc(F)c(Nc4ccc5c(n4)NC(=O)CO5)n3)cc2)CC1` [Compound 1072, N2-[4-(4-Ethoxycarbonylpiperazino)phenyl]-5-fluoro-N4-(3-oxo-2H,4H-5-pyrid[1,4]oxazin-6-yl)-2,4-pyrimidinediamine], for which the IC50 under setting [1] was below 10 µM.

With `O=C1COc2ccc(Nc3nc(Nc4cccc(N5CCOCC5)c4)ncc3F)nc2N1` [Compound 1073, 5-Fluoro-N2-(3-morpholinophenyl)-N4-(3-oxo-2H,4H-5-pyrid[1,4]oxazin-6-yl)-2,4-pyrimidinediamine], the IC50 under setting [1] was below 10 µM.

`CN1CCN(c2cccc(Nc3ncc(F)c(Nc4ccc5c(n4)NC(=O)CO5)n3)c2)CC1` [Compound 1074, 5-Fluoro-N2-[3-(4-methylpiperazion)phenyl]-N4-(3-oxo-2H,4H-5-pyrid[1,4]oxazin-6-yl)-2,4-pyrimidinediamine]: the IC50 under setting [1] is below 10 µM.

For `CCOC(=O)N1CCN(c2cccc(Nc3ncc(F)c(Nc4ccc5c(n4)NC(=O)C(C)(C)O5)n3)c2)CC1` [Compound 1075, N4-(2,2-Dimethyl-3-oxo-4H-5-pyrid[1,4]oxazin-6-yl)-N2-[3-(4-ethoxycarbonylpiperazino)phenyl]-5-fluoro-2,4-pyrimidinediamine], the IC50 under setting [1] is below 10 µM.

For the compound `CC(=O)N1CCN(c2cccc(Nc3ncc(F)c(Nc4ccc5c(n4)NC(=O)C(C)(C)O5)n3)c2)CC1` [Compound 1076, N2-[3-(4-Acetylpiperazino)phenyl]-N4-(2,2-dimethyl-3-oxo-4H-5-pyrid[1,4]oxazin-6-yl)-5-fluoro-2,4-pyrimidinediamine], the IC50 under setting [1] is below 10 µM.

As for `CCOC(=O)N1CCN(c2ccc(Nc3ncc(F)c(Nc4ccc5c(n4)NC(=O)C(C)(C)O5)n3)cc2)CC1` [Compound 1077, N4-(2,2-Dimethyl-3-oxo-4H-5-pyrid [1,4]oxazin-6-yl)-N2-[4-(4-ethoxycarbonylpiperazino)phenyl]-5-fluoro-2,4-pyrimidinediamine], under setting [1], the IC50 was below 10 µM.

Turning to `CC1(C)Oc2ccc(Nc3nc(Nc4cccc(N5CCOCC5)c4)ncc3F)nc2NC1=O` [Compound 1078, N4-(2,2-Dimethyl-3-oxo-4H-5-pyrid[1,4]oxazin-6-yl)-5-fluoro-N2-(3-morpholinophenyl)-2,4-pyrimidinediamine], the IC50 under setting [1] is below 10 µM.

In the case of `CNC(=O)COc1cccc(Nc2ncc(F)c(Nc3ccc4c(n3)NC(=O)C(C)(C)O4)n2)c1C` [Compound 1079, N4-(2,2-Dimethyl-3-oxo-4H-5-pyrid [1,4]oxazin-6-yl)-5-fluoro-N2-[2-methyl-3-(N-methylamino)carbonylmethyleneoxyphenyl]-2,4-pyrimidinediamine], under setting [1], the IC50 is below 10 µM.

Regarding `CN1CCN(c2cccc(Nc3ncc(F)c(Nc4ccc5c(n4)NC(=O)C(C)(C)O5)n3)c2)CC1` [Compound 1080, N4-(2,2-Dimethyl-3-oxo-4H-5-pyrid [1,4]oxazin-6-yl)-5-fluoro-N2-[3-(4-methylpiperazino)phenyl]-2,4-pyrimidinediamine], under setting [1], the IC50 is below 10 µM.

On to `COc1ccc(Nc2ncc(F)c(Nc3ccc4c(n3)NC(=O)[C@H](C)O4)n2)cc1Cl` [Compound 1081, (S)—N2-(3-Chloro-4-methoxyphenyl)-5-fluoro-N4-(2-methyl-3-oxo-2H,4H-5-pyrid[1,4]oxazin-6-yl)-2,4-pyrimidinediamine], for which the IC50 by setting is: under setting [2], below 10 µM; under setting [1], below 10 µM.

For `COc1cc(Nc2ncc(F)c(Nc3ccc4c(n3)NC(=O)[C@H](C)O4)n2)cc(OC)c1OC` [Compound 1082, (S)-5-Fluoro-N4-(2-methyl-3-oxo-2H,4H-5-pyrid[1,4]oxazin-6-yl)-N2-(3,4,5-trimethoxyphenyl)-2,4-pyrimidinediamine], the IC50 was below 10 µM under setting [2] and below 10 µM under setting [1].
